Experiments:
[1] = In vivo pharmacokinetics study in beagle dogs; details: male, beagle, dog, in vivo, po, 15 mg/kg
Experimental: 6 male beagle dogs (purchased from Beijing Marshall Biotechnology Co., Ltd., certificate No. SCXK (Beijing) 2016-0001) were divided into 2 groups with 3 dogs in each group, and all of the animals were fasted for about 12 hours before administration. One group was orally administrated with 15 mg/kg of the final product of Embodiment 22 (deionized water was added, followed by sonication for 29 minutes and stirring for 4 minutes, and a clear pale yellow dosing solution with a concentration of 3 mg/mL was prepared); the other group was orally administrated with 15 mg/kg of Pyrotinib (deionized water was added, followed by sonication for 28 minutes and stirring for 5 minutes, and a clear yellow dosing solution with a concentration of 3 mg/mL was prepared). Blood samples were collected before administration and at 15, 30, 60, 90, 120, 150, 180, 240, 360, 480, 720 and 1440 minutes respectively after administration.
(§1) 1.0 mL of blood was collected from each animal through jugular vein puncture at each time point and heparin sodium was used for anticoagulation. The blood samples were collected and placed in labeled centrifuge tubes, and plasma was centrifuged (centrifugation conditions: 3500 rpm, 10 minutes, 2-8° C.). To 50 μL of plasma sample was added 300 μL of acetonitrile containing internal standard (Propranolol, 25 ng/mL) to precipitate the protain. After vortexing for 10 minutes and centrifuging at 6000 g for 20 minutes, 100 μL of supernatant was taken and injected into a 96-well plate. The drug concentration in plasma was determined by UPLC/MS-MS.

[2] = system: HER2 overexpressing human gastric cancer NCI-N87 nude mice xenograft; assay: HER2 overexpressing human gastric cancer NCI-N87 nude mice xenograft model; assay type: in vivo; details: continuous oral administration for 21 days
Source text: We have established nude mice xenograft model for HER2 overexpression.

[3] = In vivo pharmacokinetics study in cynomolgus monkeys; details: male, cynomolgus monkey, in vivo, po, 15 mg/kg
Experimental: 6 male cynomolgus monkeys (purchased from Guangxi Guidong Primate Development Experiment Co., Ltd., certificate No. SCXK (Guangxi) 2013-0057) were divided into 2 groups with 3 in each group, and all of the animals were fasted for about 12 hours before administration. One group was orally administrated with 15 mg/kg of the final product of Embodiment 22 (deionized water was added, followed by sonication for 30 minutes and stirring for 3 minutes, and a clear pale yellow dosing solution with a concentration of 3 mg/mL was prepared); one group was administrated with 15 mg/kg of Pyrotinib (deionized water was added, followed by sonication for 30 minutes and stirring for 4 minutes, and a clear yellow dosing solution with a concentration of 3 mg/mL was prepared). Blood samples were collected before administration and at 15, 30, 60, 90, 120, 150, 180, 240, 360, 480, 720 and 1440 minutes respectively after administration.
as §1

[4] = system: N87 (human gastric cancer cell NCI-N87); assay: In vitro proliferation inhibition assay of cell lines (CellTiter-Glo), N87; assay type: cell-based; details: N87 cells, 72 hours
Outline: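 Cells seeded overnight (BT-474 8.8×10^4 cells/mL, N87 6.6×10^4 cells/mL), then exposed to 9 compound concentrations in duplicate for 72 hours at 37° C, 5% CO2. Viability read by CellTiter-Glo luminescence.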

[5] = In vivo pharmacokinetic study in mice; details: male, ICR, mouse, plasma, oral, 3 mg/kg intravenous, 10 mg/kg intragastric
Experimental: 24 male ICR mice weighing 18-22 g (provided by Shanghai Xipuerbikai Experimental Animal Co., Ltd, certificate No.: 20130016005759). The mice were fasted for feed but not water for 12-16 hours before the experiment. 24 mice were divided into 2 groups with 12 mice in each group. The first group was intravenously administrated with 3 mg/kg (which was dissolved by the ratio 0.9% physiological saline:PEG 400=8:2, to give a clear solution with a concentration of 0.3 mg/mL and a dosage volume of 10 mL/kg) of the final product of Embodiment 45. Blood samples were collected before administration and 2, 5, 15, 30, 60, 90, 120, 240, 360, 480, 600 and 1440 minutes after administration, respectively. The second group was intragastricly administrated with 10 mg/kg (0.5% CMC-Na was added and grounded into a uniform suspension with a concentration of 0.5 mg/mL and a dosage volume of 20 mL/kg) of the final product of Embodiment 45. […]
0.4 mL of blood was taken from fundus venous plexus of mice and rats into a heparinized centrifuge tube (10 μL heparin sodium solution/tube). […] After vortexing for 10 minutes and centrifuging at 6000 g and 4° C. for 10 minutes, the supernatant was diluted with mobile phase in a 96-well plate, and the drug concentration in plasma was determined by UPLC/MS-MS.

| SMILES | AUC [1] | peak oral absorption concentration [1] | tolerability ([2]; 5 mg/kg, 10 mg/kg and 20 mg/kg) | tumor volume inhibition rate (GI %) ([2]; 5 mg/kg) | tumor volume inhibition rate (GI %) ([2]; 10 mg/kg) | tumor volume inhibition rate (GI %) ([2]; 20 mg/kg) | AUC [3] | oral absorption peak concentration [3] | IC50 [4] | bioavailability [5] |
| --- | --- | --- | --- | --- | --- | --- | --- | --- | --- | --- |
| CCOc1cc2ncnc(Nc3ccc(Oc4ccn5ncnc5c4)c(C)c3)c2cc1NC(=O)/C=C/[C@H]1CCCN1C [Final product of Embodiment 22, (R,E)-N-(4-((4-([1,2,4]triazolo[1,5-a]pyridin-7-yloxy)-3-methylphenyl)amino)-7-ethoxyquinazolin-6-yl)-3-(1-methylpyrrolidin-2-yl)acrylamide] | 5190 ng·h/mL | 432.6 ng/mL | tolerant | 51.5% | 130.1% | 146.2% | 5580 ng·h/mL | 506.5 ng/mL | 0.68 nM | – |
| CCOc1cc2ncnc(Nc3ccc(Oc4ccn5ncnc5c4)c(C)c3)c2cc1NC(=O)/C(F)=C/[C@H]1CCCN1C [Final product of Embodiment 45] | – | – | – | – | – | – | – | – | 1.3 nM | 87.7% |

From US11578074B2, “Nitrogenous heterocyclic compound, preparation method, intermediate, composition, and application” (SHANGHAI PHARMACEUTICALS HOLDING CO., LTD., priority 2017, dated 2023)
